{"source": "the NIST ThermoML archive (doi:10.1021/je7004837)", "settings": "Liquid, Ebulliometric method (Recirculating still)", "note": "Numbers after ± are expanded uncertainties."}
{"smiles": "FC(C(F)(F)F)C(F)(F)F", "note": "[1,1,1,2,3,3,3-heptafluoropropane]", "values": [{"measurement": "vapor or sublimation pressure", "setting": "273.15 K", "value": "194 ± 2", "unit": "kPa"}, {"measurement": "vapor or sublimation pressure", "setting": "283.15 K", "value": "280 ± 2", "unit": "kPa"}, {"measurement": "vapor or sublimation pressure", "setting": "293.15 K", "value": "389 ± 3", "unit": "kPa"}, {"measurement": "vapor or sublimation pressure", "setting": "303.15 K", "value": "527 ± 3", "unit": "kPa"}, {"measurement": "vapor or sublimation pressure", "setting": "313.15 K", "value": "704 ± 3", "unit": "kPa"}, {"measurement": "vapor or sublimation pressure", "setting": "323.15 K", "value": "920 ± 4", "unit": "kPa"}]}
{"smiles": "CCCC", "note": "[butane]", "values": [{"measurement": "vapor or sublimation pressure", "setting": "273.15 K", "value": "104 ± 2", "unit": "kPa"}, {"measurement": "vapor or sublimation pressure", "setting": "283.15 K", "value": "150 ± 2", "unit": "kPa"}, {"measurement": "vapor or sublimation pressure", "setting": "293.15 K", "value": "208 ± 2", "unit": "kPa"}, {"measurement": "vapor or sublimation pressure", "setting": "303.15 K", "value": "284 ± 2", "unit": "kPa"}, {"measurement": "vapor or sublimation pressure", "setting": "313.15 K", "value": "378 ± 2", "unit": "kPa"}, {"measurement": "vapor or sublimation pressure", "setting": "323.15 K", "value": "494 ± 3", "unit": "kPa"}]}
